Patent US11279733B2, “Peptide antibiotics” (priority 2017, dated 2022)
Values after ≈ are worked out from the molar mass of the structure shown. Positions of bridges follow the written chain, without caps; N, C: chain ends. Non-standard residues stand in square brackets, D forms with d. Residues, ends and D or L forms follow the SMILES beside them. *: point of attachment. Decanoyl(3R-OH) = CCCCCCC[C@@H](O)CC(=O)*; Heptanoyl(6-Me) = CC(C)CCCCC(=O)*; dDab = NCC[C@@H](N)C(=O)O; Nle = CCCC[C@H](N)C(=O)O; dDap = NC[C@@H](N)C(=O)O; Dab = NCC[C@H](N)C(=O)O; Nva = CCC[C@H](N)C(=O)O; Abu = CC[C@H](N)C(=O)O

Assays:
A. baumannii ATCC 19606 = conditions: ATCC 19606
Procedure, shortened: (§1)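 Mid-log cultures grown in Mueller Hinton broth at 37° C were tested by 2-fold broth microdilution at 5×10^5 CFU/mL final. Compounds were dissolved in water and tested over a final range of 32 to 0.015 μg/mL.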

A. baumannii GN_093 PmxR = conditions: GN 093 PmxR
Procedure, shortened: as §1

E. coli ATCC 25922 = conditions: ATCC 25922
Procedure, shortened: as §1

K. pneumoniae ATCC 13883 = conditions: ATCC 13883
Procedure, shortened: as §1

[1] = tested on: K. pneumoniae ATCC 700603, MDR; conditions: ATCC 700603
Procedure, shortened: as §1

[2] = tested on: K. pneumoniae ATCC BAA-2146, NDM-1 pos; conditions: ATCC BAA-2146
Procedure, shortened: as §1

[3] = tested on: K. pneumoniae GN_102 PmxR; conditions: GN 102 PmxR
Procedure, shortened: as §1

[4] = tested on: K. pneumoniae GN_106, PmxR; conditions: GN 106, PmxR
Procedure, shortened: as §1

P. aeruginosa ATCC 27853 = conditions: ATCC 27853
Procedure, shortened: as §1

[5] = tested on: P. aeruginosa GN_043, PmxR; conditions: P. aeruginosa GN_043, PmxR
Procedure, shortened: as §1

[6] = tested on: P. aeruginosa GN_105, PmxR; conditions: GN 105, PmxR
Procedure, shortened: as §1

in vitro = conditions: human
Method: Cytotoxicity of the synthesised peptides was evaluated by comparison with commercially available colistin (polymyxin E), polymyxin B (Sigma chemical Co., St. Louis, Mo., U.S.A.) and synthetic octapeptin C4 by conducting lactate dehydrogenase (LDH) assay. CC50 values calculated based on curve fitting of dose dependent inhibition of cell growth represented the cytotoxicity of the peptide. Human kidney 2 (HK2) cells were seeded as 2000 cells per well in a 384 well cell culture plate in a final volume of 20 μL in DMEM/F12 medium (Invitrogen #11330057), in which 10% of FBS was added. Cells were incubated for 24 hours at 37° C., 5% CO2 to allow cells to attach to the plates. Similar conditions were employed for HEK293 and HepG2 cytotoxicity assays.
Cytotoxicity to HEK293 and HepG2 cells was determined using the resazurin assay (McMillian, M. K.; Li, L.; Parker, J. B.; Patel, L.; Zhong, Z.; Gunnett, J. W.; Powers, W. J.; Johnson, M. D. An improved resazurin-based cytotoxicity assay for hepatic cells; Cell Biol. Toxicol. 2002, 18, 157-173; O'Brien, J.; Wilson, I.; Orton, T.; Pognan, F. Investigation of the Alamar Blue (resazurin) fluorescent dye for the assessment of mammalian cell cytotoxicity. Eur. J. Biochem. 2000, 267, 5421-5426). In brief, HEK293 and HepG2 cells were seeded at 4000 cells/well in black-wall, clear-bottom 384-well plates (Corning, Australia) and incubated for 24 h at 37° C., 5% CO2. Compounds were then added into each well. After 24 h incubation, 5 μM resazurin was added per well and incubated at 37° C. for 2 h. Fluorescence intensity was then read using a Polarstar Omega with excitation/emission 560/590. The data was then analyzed using GraphPad Prism 6 software. CC50 values were determined using GraphPad Prism 6 software (Inc. La Jolla, Calif.).

| SMILES | MIC A. baumannii ATCC 19606 (A. baumannii ATCC 19606) [µg/mL] | MIC A. baumannii GN_093 PmxR (A. baumannii GN_093 PmxR) [µg/mL] | MIC E. coli ATCC 25922 (E. coli ATCC 25922) [µg/mL] | MIC K. pneumoniae ATCC 13883 (K. pneumoniae ATCC 13883) [µg/mL] | MIC K. pneumoniae ATCC 700603, MDR [1] [µg/mL] | MIC K. pneumoniae ATCC BAA-2146, NDM-1 pos [2] [µg/mL] | MIC K. pneumoniae GN_102 PmxR [3] [µg/mL] | MIC K. pneumoniae GN_106, PmxR [4] [µg/mL] | MIC P. aeruginosa ATCC 27853 (P. aeruginosa ATCC 27853) [µg/mL] | MIC P. aeruginosa GN_043, PmxR [5] [µg/mL] | MIC P. aeruginosa GN_105, PmxR [6] [µg/mL] | CC50 at 24 h (in vitro) [µM] |
| --- | --- | --- | --- | --- | --- | --- | --- | --- | --- | --- | --- | --- |
| CCCCCCC[C@@H](O)CC(=O)N[C@H](CCN)C(=O)N[C@H]1CCNC(=O)[C@H](CC(C)C)NC(=O)[C@H](CCN)NC(=O)[C@H](CCN)NC(=O)[C@H]([C@@H](C)O)NC(=O)[C@@H](Cc2ccccc2)NC(=O)[C@H](CCN)NC1=O [compound 9289, 3(R)OH-nC9CO-D-Dab-cyc[L-Dab-L-Dab-D-Phe-L-Thr-L-Dab-L-Dab-L-Leu]] ({Decanoyl(3R-OH)}-[dDab][Dab][Dab][dF]T[Dab][Dab]L; lactam 2-C) | 2 (≈ 1.94 µM) | >32 | 2 (≈ 1.94 µM) | 2 (≈ 1.94 µM) | 1 (≈ 0.969 µM) | 2 (≈ 1.94 µM) | >32 | >32 | 1 (≈ 0.969 µM) | >32 | >32 | > 300 |
| CC(C)CCCCC(=O)N[C@H](CCN)C(=O)N[C@H]1CCNC(=O)[C@H](CC(C)C)NC(=O)[C@H](CCN)NC(=O)[C@H](CCN)NC(=O)[C@H](CC(C)C)NC(=O)[C@@H](Cc2ccccc2)NC(=O)[C@H](CCN)NC1=O [compound 9290, 6Me-nC6CO-D-Dab-cyc[L-Dab-L-Dab-D-Phe-L-Leu-L-Dab-L-Dab-L-Leu]] ({Heptanoyl(6-Me)}-[dDab][Dab][Dab][dF]L[Dab][Dab]L; lactam 2-C) | 16 (≈ 16 µM) | 16 (≈ 16 µM) | 8 (≈ 8 µM) | 8 (≈ 8 µM) | 4 (≈ 4 µM) | 4 (≈ 4 µM) | 4 (≈ 4 µM) | 4 (≈ 4 µM) | 2 (≈ 2 µM) | 1 (≈ 1 µM) | 16 (≈ 16 µM) | > 300 |
| CCCCCCC[C@@H](O)CC(=O)N[C@H](CN)C(=O)N[C@H]1CCNC(=O)[C@H](CC(C)C)NC(=O)[C@H](CCN)NC(=O)[C@H](CCN)NC(=O)[C@H](C(C)C)NC(=O)[C@@H](Cc2ccccc2)NC(=O)[C@H](CCN)NC1=O [compound 9291, 3(R)OH-nC9CO-D-Dap-cyc[L-Dab-L-Dab-D-Phe-L-Val-L-Dab-L-Dab-L-Leu]] ({Decanoyl(3R-OH)}-[dDap][Dab][Dab][dF]V[Dab][Dab]L; lactam 2-C) | >32 | 32 (≈ 31.5 µM) | 2 (≈ 1.97 µM) | 8 (≈ 7.87 µM) | 8 (≈ 7.87 µM) | 8 (≈ 7.87 µM) | 32 (≈ 31.5 µM) | 32 (≈ 31.5 µM) | 2 (≈ 1.97 µM) | 2 (≈ 1.97 µM) | 32 (≈ 31.5 µM) | > 300 |
| CCCCCCC[C@@H](O)CC(=O)N[C@H](CN)C(=O)N[C@H]1CCNC(=O)[C@H](CC(C)C)NC(=O)[C@H](CCN)NC(=O)[C@H](CCN)NC(=O)[C@H](CC)NC(=O)[C@@H](Cc2ccccc2)NC(=O)[C@H](CCN)NC1=O [compound 9292, 3(R)OH-nC9CO-D-Dap-cyc[L-Dab-L-Dab-D-Phe-L-Abu-L-Dab-L-Dab-L-Leu]] ({Decanoyl(3R-OH)}-[dDap][Dab][Dab][dF][Abu][Dab][Dab]L; lactam 2-C) | 8 (≈ 7.98 µM) | 8 (≈ 7.98 µM) | 4 (≈ 3.99 µM) | 4 (≈ 3.99 µM) | 4 (≈ 3.99 µM) | 4 (≈ 3.99 µM) | 2 (≈ 2 µM) | 4 (≈ 3.99 µM) | 2 (≈ 2 µM) | 2 (≈ 2 µM) | 8 (≈ 7.98 µM) | > 300 |
| CCCCCCC[C@@H](O)CC(=O)N[C@H](CN)C(=O)N[C@H]1CCNC(=O)[C@H](CC(C)C)NC(=O)[C@H](CCN)NC(=O)[C@H](CCN)NC(=O)[C@H](CCC)NC(=O)[C@@H](Cc2ccccc2)NC(=O)[C@H](CCN)NC1=O [compound 9293, 3(R)OH-nC9CO-D-Dap-cyc[L-Dab-L-Dab-D-Phe-L-NorVal-L-Dab-L-Dab-L-Leu]] ({Decanoyl(3R-OH)}-[dDap][Dab][Dab][dF][Nva][Dab][Dab]L; lactam 2-C) | 8 (≈ 7.87 µM) | 4 (≈ 3.94 µM) | 4 (≈ 3.94 µM) | 4 (≈ 3.94 µM) | 4 (≈ 3.94 µM) | 4 (≈ 3.94 µM) | 2 (≈ 1.97 µM) | 2 (≈ 1.97 µM) | 2 (≈ 1.97 µM) | 1 (≈ 0.984 µM) | 4 (≈ 3.94 µM) | > 300 |
| CCCCCCC[C@@H](O)CC(=O)N[C@H](CN)C(=O)N[C@H]1CCNC(=O)[C@H](CC(C)C)NC(=O)[C@H](CCN)NC(=O)[C@H](CCN)NC(=O)[C@H](CCCC)NC(=O)[C@@H](Cc2ccccc2)NC(=O)[C@H](CCN)NC1=O [compound 9294, 3(R)OH-nC9CO-D-Dap-cyc[L-Dab-L-Dab-D-Phe-L-NorLeu-L-Dab-L-Dab-L-Leu]] ({Decanoyl(3R-OH)}-[dDap][Dab][Dab][dF][Nle][Dab][Dab]L; lactam 2-C) | 8 (≈ 7.76 µM) | 4 (≈ 3.88 µM) | 4 (≈ 3.88 µM) | 4 (≈ 3.88 µM) | 4 (≈ 3.88 µM) | 4 (≈ 3.88 µM) | 2 (≈ 1.94 µM) | 2 (≈ 1.94 µM) | 2 (≈ 1.94 µM) | 1 (≈ 0.971 µM) | 4 (≈ 3.88 µM) | 193 |
| CCCCCCC[C@@H](O)CC(=O)N[C@H](CN)C(=O)N[C@H]1CCNC(=O)[C@H](CC(C)C)NC(=O)[C@H](CCN)NC(=O)[C@H](CCN)NC(=O)[C@H]([C@@H](C)O)NC(=O)[C@@H](Cc2ccccc2)NC(=O)[C@H](CCN)NC1=O [compound 9295, 3(R)OH-nC9CO-D-Dap-cyc[L-Dab-L-Dab-D-Phe-L-Thr-L-Dab-L-Dab-L-Leu]] ({Decanoyl(3R-OH)}-[dDap][Dab][Dab][dF]T[Dab][Dab]L; lactam 2-C) | 4 (≈ 3.93 µM) | 4 (≈ 3.93 µM) | 2 (≈ 1.96 µM) | 4 (≈ 3.93 µM) | 4 (≈ 3.93 µM) | 4 (≈ 3.93 µM) | 2 (≈ 1.96 µM) | 4 (≈ 3.93 µM) | 2 (≈ 1.96 µM) | 2 (≈ 1.96 µM) | 4 (≈ 3.93 µM) | > 300 |
